According to the Deep4Chem optical property database:
Each block holds one compound with its values, some of them ahead of it.

Experiment: solvent given as SMILES

Compound: O=C1O[B-]2(OC1=O)OC(c1ccc3ccccc3c1)=CC(c1ccc3ccccc3c1)=[O+]2
emission maximum (in CC#N): 550 nm | emission maximum (in ClC(Cl)(Cl)Cl): 451 nm

Compound: C/C(=C\c1ccc(C)cc1)c1nc2ccccc2s1
emission maximum (in C1CCCCC1): 390 nm | emission maximum (in CO): 400 nm

Compound: OC1(c2ccc(-c3cccs3)s2)CCC(c2ccccc2)CC1 (stereo unspecified)
emission maximum (in C1CCOC1): 471 nm | emission maximum (in CC#N): 468 nm | emission maximum (in CCCCCC): 464 nm | emission maximum (in CCO): 460 nm | emission maximum (in OCCOCCO): 384 nm | emission maximum (in c1ccncc1): 385 nm

Compound: CC(C)c1cc(C(C)C)c(-c2nnc(-c3ccc(-n4c5ccccc5c5ccccc54)cc3)o2)c(C(C)C)c1
emission maximum (in CCO): 435 nm | emission maximum (in Cc1ccccc1): 377 nm

Compound: O=c1[nH]c(=O)n([C@@H]2O[C@H](CO)[C@@H](O)[C@H]2O)cc1-c1cc2ccccc2s1
emission maximum (in C1COCCO1): 435 nm | emission maximum (in CC#N): 443 nm | emission maximum (in CO): 446 nm | emission maximum (in O): 458 nm

Compound: CC(C)(C)c1ccc(-c2cc(-c3ccc(-c4cc(-c5ccc(C(C)(C)C)cc5)c(C(=O)N5CCCCC5)s4)s3)sc2C(=O)N2CCCCC2)cc1
emission maximum (in ClCCl): 461 nm

Compound: COC(=O)c1cc(=O)n(C)c2cc(-c3ccc4c(c3)OCO4)sc12
emission maximum (in CC#N): 482 nm | emission maximum (in ClCCl): 474 nm

Compound: CN(C)c1cc2oc3cc(N(C)C)c(F)cc3c(=O)c2cc1F
emission maximum (in CCO): 446 nm

Compound: C#Cc1ccc2ccc3oc(=O)cc(C)c3c2c1
emission maximum (in CCO): 403 nm

Compound: Cc1ccc2nc(-c3cccc4nc(C)[nH]c(=O)c34)oc2c1
emission maximum (in CN(C)C=O): 410 nm

Further lines, with some results ahead:

emission maximum (in CCCCCC): 548 nm
Compound: CC(C)[Si](C#Cc1c2cc3ccccc3cc2c(C#C[Si](C(C)C)(C(C)C)C(C)C)c2nc3c(nc12)C1c2ccccc2C3c2ccccc21)(C(C)C)C(C)C

emission maximum (in C1CCOC1): 721 nm
Compound: CCc1nc2c(nc1CC)C(c1ccccc1)=[N+]1C2=Nc2c3nc(CC)c(CC)nc3c(-c3ccccc3)n2[B-]1(F)F

emission maximum (in CCCCCC): 553 nm
Compound: CC(C)[Si](C#Cc1c2ccccc2c(C#C[Si](C(C)C)(C(C)C)C(C)C)c2nc3c(ccc4ccccc43)nc12)(C(C)C)C(C)C

emission maximum (in CCO): 665 nm | emission maximum (in CO): 661 nm | emission maximum (in CS(C)=O): 665 nm | emission maximum (in O): 659 nm
Compound: CN1/C(=C/C=C(/C=C/c2sc3ccccc3[n+]2C)c2cccc(C(F)(F)F)c2)Sc2ccccc21

emission maximum (in C1COCCO1): 436 nm | emission maximum (in CC#N): 432 nm | emission maximum (in CCCCOCCCC): 430 nm | emission maximum (in CCOC(C)=O): 433 nm
Compound: Clc1nc(Nc2ccccc2)nc(Nc2ccc3cc4ccccc4cc3c2)n1

emission maximum (in C1CCOC1): 571 nm | emission maximum (in CC#N): 600 nm | emission maximum (in CCO): 583 nm | emission maximum (in CCOC(C)=O): 565 nm | emission maximum (in ClCCl): 582 nm | emission maximum (in c1ccccc1): 534 nm
Compound: CC1(C)CC(/C=C/c2ccc(-n3c4ccccc4c4ccccc43)cc2)=CC(=C(C#N)C#N)C1

emission maximum (in C1CCOC1): 467 nm
Compound: COc1ccc(C(=Cc2ccc(/C=C/c3ccc(C#N)cc3)cc2)c2ccc(OC)cc2)cc1

emission maximum (in O): 555 nm
Compound: N#Cc1c(N2CCCCC2)cc(-c2cccs2)c2c1-c1cccc3cccc-2c13

emission maximum (in ClC(Cl)Cl): 661 nm
Compound: F[B-]1(F)n2c(cc3oc(-c4ccccc4)cc32)C=C2C=c3oc(-c4ccccc4)cc3=[N+]21

emission maximum (in C1CCOC1): 594 nm
Compound: O=C(c1ccc(N2c3ccccc3Oc3ccccc32)cc1)c1ccc2sc3ccccc3c2c1
emission maximum (in c1ccc2c(c1)c1ccccc1n2-c1ccc(-c2ccc(-n3c4ccccc4c4ccccc43)cc2)cc1): 524 nm

emission maximum (in ClC(Cl)Cl): 439 nm
Compound: CO[Si](c1c2ccccc2cc2ccccc12)(c1c2ccccc2cc2ccccc12)c1c2ccccc2cc2ccccc12

emission maximum (in CCCCCC): 656 nm
Compound: CC(C)[Si](C#Cc1c2nc3ccccc3nc2c(C#C[Si](C(C)C)(C(C)C)C(C)C)c2nc3c(ccc4ccccc43)nc12)(C(C)C)C(C)C

emission maximum (in CC#N): 728 nm | emission maximum (in CCO): 721 nm | emission maximum (in CO): 720 nm | emission maximum (in ClC(Cl)Cl): 722 nm
Compound: CCNc1cc2c(cc1C)C(c1ccccc1C(=O)O)=C1CCCC(/C=C/C3=[N+](C)c4ccccc4C3(C)C)=C1O2

emission maximum (in ClC(Cl)Cl): 444 nm
Compound: CC(C)(C)c1ccc2oc3nc4oc5ccc(-n6c7ccc(C(C)(C)C)cc7c7cc(C(C)(C)C)ccc76)cc5c4cc3c2c1
